Drawing on PubChem BioAssay (NCI), this text covers TGI and GI50 for 15 compounds.

Some test systems named below: KM12 colon; UACC-257 melanoma; SN12C renal; HCC-2998 colon; MALME-3M melanoma; RXF 393 renal; U251 CNS; SNB-19 CNS; CAKI-1 renal; NCI/ADR-RES ovarian.
Holding throughout (test): inhibition of tumour cell growth, NCI panel, 48 h

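Values below derive from 48-hour exposures of cells grown in 96-well plates, with endpoints linearly interpolated between the two concentrations bracketing the appropriate inhibition level. GI50: concentration for 50% inhibition of growth. Definition used: TGI = concentration required for complete inhibition of growth.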 Some results are limits rather than exact numbers.

Take `O=C1C2=C(CCCCC2)C2CCCCC12O` (stereo not given): the TGI with KM12 colon, in the assay on UACC-257 melanoma, in the assay with SN12C renal, in the assay on HCC-2998 colon, in the assay with MALME-3M melanoma and in the assay on RXF 393 renal was greater than 100 µM in each case. Besides, the TGI in the assay on U251 CNS and with SNB-19 CNS was greater than 100 µM throughout.
For the compound `COc1c(-c2cccs2)oc2c(CC(=O)O)cccc2c1=O`, the TGI with CAKI-1 renal, in the assay with UACC-257 melanoma, in the assay on SN12C renal, in the assay with HCC-2998 colon, in the assay with MALME-3M melanoma and with RXF 393 renal was greater than 100 µM throughout. In the assay with U251 CNS, this compound came in with a TGI greater than 100 µM.
`O=C1OC(c2ccc(Cl)cc2)(c2ccc(Cl)cc2)c2c1ccc1ccccc21`: the TGI with KM12 colon, in the assay on CAKI-1 renal, in the assay with UACC-257 melanoma, in the assay with SN12C renal, with HCC-2998 colon and in the assay with MALME-3M melanoma was greater than 100 µM in each case. Further, the TGI in the assay with RXF 393 renal, in the assay on U251 CNS and with SNB-19 CNS was greater than 100 µM throughout.
`CC(C)(C)c1cc(/C=C/C(=O)CC(=O)/C=C/c2cc(C(C)(C)C)c(O)c(C(C)(C)C)c2)cc(C(C)(C)C)c1O`: the TGI with KM12 colon, in the assay with UACC-257 melanoma, in the assay with SN12C renal, with NCI/ADR-RES ovarian, with RXF 393 renal and with U251 CNS was greater than 50 µM throughout. Moreover, the TGI in the assay on SNB-19 CNS was greater than 50 µM.
As to `CCOC(=O)c1cn(CC)c2cc3c(cc2c1=O)CCS3(=O)=O`, the TGI in the assay with KM12 colon, in the assay on SN12C renal, in the assay on NCI/ADR-RES ovarian, in the assay on HCC-2998 colon, with MALME-3M melanoma and with RXF 393 renal was greater than 100 µM each time. Besides, the TGI with U251 CNS and in the assay on SNB-19 CNS was greater than 100 µM each time.
Regarding `CN(C)CCCNc1cnc2cc3ccccc3cc2n1`, the TGI with KM12 colon was 47.4 µM; in the assay with CAKI-1 renal it was 74.4 µM; with UACC-257 melanoma, 42.5 µM; in the assay with SN12C renal it was greater than 100 µM; with HCC-2998 colon, 35.1 µM; with MALME-3M melanoma it was 44.5 µM. Moreover, the TGI in the assay with RXF 393 renal was 50.2 µM; with U251 CNS, greater than 100 µM; with SNB-19 CNS, greater than 100 µM.
On to `CC(=O)Nc1ccc(-c2nnc(SCC(=O)Nc3cccc([N+](=O)[O-])c3)o2)cc1`, for which the TGI with KM12 colon is 39.4 µM; in the assay with CAKI-1 renal, 55.8 µM; in the assay with UACC-257 melanoma, 51.4 µM; in the assay with SN12C renal it was 33.2 µM; in the assay with MALME-3M melanoma, 23.9 µM; in the assay on RXF 393 renal it was 25.7 µM. In the assay on U251 CNS, this compound gave a TGI of 29.3 µM.
Take `C/C(=N\NC(=O)c1cccnc1)c1cccc(/C(C)=N/NC(=O)c2cccnc2)n1.CC(=O)[O-].CC(=O)[O-].[Zn+2]`: the TGI was greater than 100 µM with KM12 colon; 31.4 µM in the assay on CAKI-1 renal; 99.7 µM in the assay on UACC-257 melanoma; greater than 100 µM in the assay with SN12C renal; greater than 100 µM with HCC-2998 colon; greater than 79.9 µM with MALME-3M melanoma. For the same compound, the TGI in the assay on RXF 393 renal was 36.8 µM; with U251 CNS it was greater than 100 µM; in the assay on SNB-19 CNS, greater than 100 µM. Further, the GI50 is 0.995 µM in the assay on HCC-2998 colon and 19.3 µM in the assay on MALME-3M melanoma.
Turning to `CN1CCN(/C(N)=C(\C#N)C(=O)Nc2ccccc2)CC1`, the TGI in the assay on KM12 colon, in the assay on CAKI-1 renal, in the assay on UACC-257 melanoma, in the assay on SN12C renal, in the assay on NCI/ADR-RES ovarian and in the assay on HCC-2998 colon was greater than 100 µM throughout. The TGI in the assay with U251 CNS and in the assay on SNB-19 CNS was greater than 100 µM each time.
Consider `N#Cc1ccc(Nc2cnc3ccc(N)cc3n2)cc1`, for which the TGI with KM12 colon, in the assay with CAKI-1 renal, with UACC-257 melanoma, with SN12C renal, with HCC-2998 colon and in the assay with MALME-3M melanoma was greater than 100 µM in each case. Moreover, the TGI in the assay on RXF 393 renal, in the assay on U251 CNS and in the assay on SNB-19 CNS was greater than 100 µM each time.
`COC(=O)[C@@]12OC[C@]34C([C@@H](O)C1O)[C@@]1(C)CC(=O)C(O)=C(C)C1C[C@H]3OC(=O)[C@H](OC(=O)/C=C(/c1ccccc1)C(F)(F)F)[C@H]42` (stereo not given in full): the TGI with KM12 colon was greater than 25 µM; in the assay on CAKI-1 renal, greater than 25 µM; with UACC-257 melanoma, greater than 25 µM; in the assay on SN12C renal it was greater than 25 µM; in the assay with HCC-2998 colon, 8.04 µM; with MALME-3M melanoma, 5.71 µM. Also, the TGI with RXF 393 renal is 17.5 µM; in the assay with U251 CNS, greater than 25 µM; with SNB-19 CNS, 14.2 µM.
In the case of `CC1C2CC(CC2N)C1(C)C` (stereo not given), the TGI with KM12 colon, in the assay on CAKI-1 renal, with UACC-257 melanoma, in the assay with SN12C renal, in the assay on HCC-2998 colon and with MALME-3M melanoma was greater than 100 µM throughout. Besides, the TGI in the assay with U251 CNS and in the assay on SNB-19 CNS was greater than 100 µM in each case.
Turning to `COc1cc2cc3c4c(cc(OC)c(OC)c4c2cc1OC)CCN3C(=O)N(C)C`, the TGI with KM12 colon, in the assay on CAKI-1 renal, in the assay on UACC-257 melanoma, in the assay with SN12C renal, with HCC-2998 colon and in the assay on MALME-3M melanoma was greater than 100 µM throughout. Besides, the TGI in the assay on RXF 393 renal, in the assay on U251 CNS and in the assay with SNB-19 CNS was greater than 100 µM each time.
`O=C(Cc1ccccc1)N=Nc1c(O)[nH]c2ccccc12`: the TGI in the assay on KM12 colon, in the assay on UACC-257 melanoma, in the assay on SN12C renal, in the assay on NCI/ADR-RES ovarian, in the assay on HCC-2998 colon and with MALME-3M melanoma was greater than 100 µM throughout. Moreover, the TGI in the assay on RXF 393 renal, in the assay on U251 CNS and in the assay on SNB-19 CNS was greater than 100 µM each time.
As to `COc1cc(/C=C2\N=C(C)N(n3c(-c4ccccc4)nc4ccccc4c3=O)C2=O)cc(OC)c1OC`, the TGI in the assay on KM12 colon, in the assay with CAKI-1 renal, in the assay on UACC-257 melanoma, with SN12C renal, in the assay with HCC-2998 colon and with MALME-3M melanoma was greater than 100 µM each time. The compound also came in with a TGI in the assay with SNB-19 CNS greater than 100 µM.
